Data set [1] in a line: Estrogenic, androgenic, anti-estrogenic and anti-androgenic activities.
A short description of the next data set: Serum cortisol by ELISA. The data set is classed as in vivo, rat. The following applies: 10 mg/kg, 21 days of dosing. How it is done:
(§1) The animals were assessed three times for their levels of progesterone: initially, when they were about to go on treatment; a second time after 21 days of treatment; and finally after treatment at sacrifice which was 2-4 days after the last s.c. injection. All blood samples were taken by heart puncture; serum was prepared and held frozen at −40° C. The levels of the steroid hormones progesterone, cortisol, and corticosterone were determined by ELISA.
(§2) The concentrations of steroid hormones were determined three times during the study: before the beginning of treatments, after 21 days of treatment and finally after treatment at sacrifice which was 2-4 days after the last s.c. injection. All samples were taken by heart puncture. Serum was obtained and held frozen at −40° C. The levels of steroid hormones were determined by ELISA.
(In general: ELISA stands for enzyme-linked immunosorbent assay.)

The test system of data set [2] is rabbit progesterone receptor (rbPR) and glucocorticoid receptor (rbGR). Put plainly: Receptor-binding assays, ratio of relative binding affinities rbPR/rbGR. The following applies: RBA = EC50 of standard/EC50 of test compound x 100. On the procedure: (§3) Certain antiprogestins were tested in receptor-binding assays for their ability to bind rabbit progesterone receptor (rbPR) and glucocorticoid receptor (rbGR). Briefly, cytosol containing PR or GR were prepared in TEGMD buffer (10 mM Tris, pH 7.2, 1.5 mM EDTA, 0.2 mM sodium molybdate, 10% glycerol, 1 mM DTT) from uterus or thymus, respectively, of estradiol-primed immature rabbits. For PR binding, the cytosol was incubated with 6 nM 1,2-[^3H]progesterone (50.0 Ci/mmole) and competitors were added at concentrations from 2 to 100 nM. For binding to GR, the cytosol was incubated with 6 nM 6,7-[^3H]-dexamethasone (40 Ci/mmol) and test compounds were added at concentrations from 20 to 100 nM. After overnight incubation at 4° C., bound and unbound [^3H] steroids were separated by addition of dextran-coated charcoal and centrifugation at 2100×g for 15 min at 4
C. Supernatants containing the [3H]-steroid receptor complexes were decanted into vials containing 4 ml Optifluor (Packard Instrument Co.), vortexed, equilibrated in a liquid scintillation counter for 30 minutes and then counted for 2 minutes. The ECso (Effective Concentration) for each standard curve and each of the compound curves was determined by entering the counting data into a four parameter sigmoidal computer program (RiaSmart® Immunoassay Data Reduction Program, Packard Instrument Co., Meriden, Conn.). Relative binding affinity (RBA) for each compound was calculated using the following equation: EC50 of standard/EC50 of test compound×100. The standards for the PR and GR assays were unlabeled progesterone and dexamethasone, respectively. The results of these experiments are summarized in Table 1, as a ratio of the relative binding affinities of each compound for the rbPR and rbGR receptors (rbPR/rbGR).

In data set [3] the target is T1, glucocorticoid receptor (rbGR) (Oryctolagus cuniculus, UniProt P59667).
T1 construct: cytosol containing PR or GR were prepared in TEGMD buffer; from tissue; host or cells: thymus of estradiol-primed immature rabbits (cytosol)
T1 sequence (P59667 1-772): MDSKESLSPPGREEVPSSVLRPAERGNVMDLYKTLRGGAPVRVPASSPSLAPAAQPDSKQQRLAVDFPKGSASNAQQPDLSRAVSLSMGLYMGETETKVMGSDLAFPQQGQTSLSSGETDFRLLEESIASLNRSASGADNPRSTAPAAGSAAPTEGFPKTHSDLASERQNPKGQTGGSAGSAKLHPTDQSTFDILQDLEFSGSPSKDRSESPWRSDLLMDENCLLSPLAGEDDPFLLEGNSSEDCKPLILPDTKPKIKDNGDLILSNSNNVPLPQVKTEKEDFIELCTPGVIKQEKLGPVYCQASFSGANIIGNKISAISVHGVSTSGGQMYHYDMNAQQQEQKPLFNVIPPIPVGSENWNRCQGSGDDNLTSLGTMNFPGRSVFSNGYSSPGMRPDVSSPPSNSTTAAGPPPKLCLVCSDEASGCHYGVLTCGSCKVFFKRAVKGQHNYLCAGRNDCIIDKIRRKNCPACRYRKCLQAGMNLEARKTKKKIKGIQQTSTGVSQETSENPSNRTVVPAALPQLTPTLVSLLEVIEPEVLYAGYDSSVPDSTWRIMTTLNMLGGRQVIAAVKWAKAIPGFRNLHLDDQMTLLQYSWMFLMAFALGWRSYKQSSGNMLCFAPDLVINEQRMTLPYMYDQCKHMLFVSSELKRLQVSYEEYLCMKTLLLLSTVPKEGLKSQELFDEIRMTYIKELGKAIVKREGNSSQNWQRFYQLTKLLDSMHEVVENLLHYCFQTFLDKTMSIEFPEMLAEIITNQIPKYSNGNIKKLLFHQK
Put plainly: Glucocorticoid receptor binding. Details: species or system rabbit. How it is done:
as §3, with “Briefly, cytosol containing PR or GR were prepared in TEGMD buffer (10 mM Tris, pH 7.2, 1.5 mM EDTA, 0.2 mM sodium molybdate, 10% glycerol, 1 mM DTT) from uterus or thymus, respectively, of estradiol-primed immature rabbits.” left out
C. Supernatants containing the [3H]-steroid receptor complexes were decanted into vials containing 4 ml Optifluor (Packard Instrument Co.), vortexed, equilibrated in a liquid scintillation counter for 30 minutes and then counted for 2 minutes. […] The standards for the PR and GR assays were unlabeled progesterone and dexamethasone, respectively.

A further data set has as its system rabbit uterus. Put plainly: Anti-McGinty and anti-Clauberg assays. The data set is classed as in vivo. The following applies: in comparison to RU 486 and CDB-2914. The source says: Also given in the Table are the relative biological activities of the same compounds in the rabbit uterus by the anti-McGinty and anti-Clauberg assays. Compound CDB-2914 (listed at the end of the Table) was used as the control or reference compound (rabbit Biological Activity=1.00) for these experiments because results of experiments using CDB-2914 have been published before (Hild-Petito et al., 1996; Passaro et al., 1997; Reel et al., 1998; Lamer et al., 2000). For the anti-McGinty test, immature female rabbits received a subcutaneous injection of 5 μg estradiol in 10% ethanol/sesame oil daily for 6 consecutive days. On day 7, animals underwent sterile abdominal surgery to ligate a 3-4 cm segment of both uterine horns. The test compound in appropriate solvent was injected intraluminally into the ligated segment of one uterine horn and vehicle alone into the other. A stimulating dose of progesterone (267 μg/day) was administered subcutaneously to each rabbit daily for the next three days to induce endometrial proliferation. All animals were sacrificed at day 10 for removal of the uterus where a segment central to the ligatures was removed and fixed in 10% neutral buffered formalin and submitted for histological processing. Five micron sections stained with hematoxylin and cosin were evaluated microscopically for the degree of endometrial glandular proliferation. The percent inhibition of endometrial proliferation for each rabbit was calculated and the mean of the group of five animals recorded. For the Anti-Clauberg test, immature female rabbits received a subcutaneous injection of 5 μg estradiol in 10% ethanol/sesame oil daily for 6 consecutive days. On day 7, animals received progesterone by subcutaneous injection (160 μg/day) and the experimental compound in appropriate vehicle orally or subcutaneously for five consecutive days. One group of rabbits received progesterone only. Twenty-four hours after the last dose, all animals were sacrificed for removal of the uterus which was cleaned of all fat and connective tissue, weighed to the nearest 0.2 mg and placed in 10% neutral buffered formalin for subsequent histological processing. Five micron sections stained with hematoxylin and eosin were evaluated microscopically for the degree of endometrial glandular proliferation. The percent inhibition of endometrial proliferation at each dose level of the test compound was derived by comparison with progesterone-stimulated animals alone. The data presented in Table 1 (rabbit Biol. Act.) reflects the average of the results obtained for each compound by the anti-McGinty and anti-Clauberg assays relative to CDB-2914.

Data set [4] can be described thus: Estrogen levels in human females during administration. The data set is classed as in vivo. The following applies: administration periods of at least six months.
The nature of data set [5]: Serum progesterone by ELISA. The data set is classed as in vivo, rat. How it is done: as §1, §2
For the next data set, the target named is T2, glucocorticoid receptor (Homo sapiens, UniProt P04150).
T2 sequence (P04150 1-777): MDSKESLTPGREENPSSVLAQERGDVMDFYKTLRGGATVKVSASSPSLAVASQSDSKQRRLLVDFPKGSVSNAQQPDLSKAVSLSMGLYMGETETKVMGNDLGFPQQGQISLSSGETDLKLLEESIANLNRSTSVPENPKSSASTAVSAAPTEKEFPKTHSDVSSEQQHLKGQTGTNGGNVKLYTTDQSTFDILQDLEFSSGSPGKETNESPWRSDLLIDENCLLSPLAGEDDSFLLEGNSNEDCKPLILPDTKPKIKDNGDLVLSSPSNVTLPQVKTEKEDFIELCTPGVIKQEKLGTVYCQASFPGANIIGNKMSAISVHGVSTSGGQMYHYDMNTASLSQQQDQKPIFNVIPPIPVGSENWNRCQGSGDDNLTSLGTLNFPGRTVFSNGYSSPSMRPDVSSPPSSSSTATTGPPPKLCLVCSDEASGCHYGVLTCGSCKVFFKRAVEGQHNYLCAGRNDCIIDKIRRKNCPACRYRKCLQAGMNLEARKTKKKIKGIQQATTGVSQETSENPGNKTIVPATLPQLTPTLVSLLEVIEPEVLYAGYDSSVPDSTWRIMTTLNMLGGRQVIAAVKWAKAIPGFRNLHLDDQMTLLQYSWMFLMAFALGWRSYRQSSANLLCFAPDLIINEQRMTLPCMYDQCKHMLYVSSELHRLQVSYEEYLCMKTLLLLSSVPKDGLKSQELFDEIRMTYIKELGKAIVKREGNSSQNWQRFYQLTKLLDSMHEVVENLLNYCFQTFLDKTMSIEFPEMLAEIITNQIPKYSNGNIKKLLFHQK
The following applies: compared with parent CDB-4124; cited from earlier work.

SMILES strings stand for the structures.

Take `CC(=O)OCC(=O)[C@@]1(OC(C)=O)CCC2C3CCC4=CC(=O)CCC4=C3C(c3ccc(N(C)C)cc3)C[C@@]21C` (stereo partly drawn) [CDB-4059, 21-acetoxy-17α-acetoxy-11β-(4 N,N-dimethylaminophenyl)-19-norpregna-4,9-diene-3,20-dione]: the “estrogenic, androgenic, anti-estrogenic, and anti-androgenic activities (in words)” value in data set [1] is “lack estrogenic, androgenic, anti-estrogenic, and anti-androgenic activities”. For the same compound, in the data set “Serum cortisol by ELISA”, the “serum cortisol versus control group (in words)” value is recorded as “significantly higher levels of serum cortisol”. For the same compound, in data set [2], the “rbPR/rbGR (ratio of the relative binding affinities for rbPR and rbGR)” value is 1.89. In addition, in data set [3], the “anti-glucocorticoid receptor activity / glucocorticoid receptor binding (in words)” value is reported as “minimal anti-glucocorticoid receptor activity”. The “antiprogestin activity in the rabbit uterus (in words)” value in the data set on rabbit uterus is listed as “strong antiprogestin activity”. Further, the “estrogen levels in human females (in words)” value in data set [4] is reported as “maintain estrogen levels in the normal range”. For the same compound, the “serum progesterone versus before treatment (in words)” value in data set [5] (10 mg/kg) was “did not raise serum progesterone levels”. The “Serum Progesterone, Before TX (mean)” value in data set [5] (10 mg/kg group, before treatment) was found to be 57 ng/mL. Moreover, the “Serum Progesterone, During TX (mean)” value in data set [5] (10 mg/kg, after 21 days of treatment) is 58 ng/mL. For the same compound, in data set [5] (10 mg/kg, at sacrifice 2-4 days after the last s.c. injection), the “Serum Progesterone, After TX (mean)” value stood at 47 ng/mL.

As for `CNc1ccc([C@H]2C[C@@]3(C)[C@@H](CC[C@]3(OC(C)=O)C(=O)COC)[C@@H]3CCC4=CC(=O)CCC4=C32)cc1` [CDB-4453, 21-methoxy-17α-acetoxy-11β-(4-N-methylaminophenyl)-19-norpregna-4,9-diene-3,20-dione], the “anti-glucocorticoid activity (in words)” value on glucocorticoid receptor is “even lower anti-glucocorticoid activity than its parent”.

The record behind these values is patent publication US20110053900A1, “PROGESTERONE ANTAGONISTS SUCH AS CDB-4124 IN THE TREATMENT OF BREAST CANCER” (Repros Therapeutics inc, priority 2008, published 2011).
